Assay results taken from patent US6770673B1, “Therapeutic uses of arglabin in combination with other chemotherapy agents” (priority 1997, dated 2004).
Marks after values point to notes of the source that are not given here.

Experiments:
immune system [1] = assay: Immunologic status of patients of the first clinical trial, rozette-formation and phagocytosis; assay type: in vivo, human
Method: Immunologic status of the patients was evaluated using standard methods of rozette-formation and phagocytosis. These indices were studied prior to treatment, during treatment and after treatment. Blood samples were taken from a finger. […] A general change in the ratio of T-helper lymphocytes to T-suppressor lymphocytes was due to an increase of T-suppressor lymphocytes. […] Total number of leukocytes increased up to 9.4×10^9/L and the total number of lymphocytes increased as well. The levels of all types of immunoglobulins increased.
By day 20 of treatment, all indices returned to normal. In some patients, indices returned to normal by day 14. In patients that were analyzed 30 days after treatment, a significant increase in the number of T-lymphocytes and adhesiveness of neutrophils was observed.

P-815 cells [2] = assay: Proliferation of transformed cells, 3H-thymidine incorporation; assay type: cell-based, mouse; conditions: 3H-thymidine 18 hours, FIG. 6
Method: (§1) Mouse mastocytoma (P-815), myeloma (Z-P3x63Ag8.653 and Pai) and human erthyroleukemia (K-562) cell lines were used. Primary cultures of normal mouse hepatocytes were isolated from mouse liver using collagenase. Mouse splenocytes were isolated using a glass homogenizer. Marrow cells were obtained by washing the bone marrow. See, for example, Shears, S. B. and Kirk, C. J. (1984), Biochem. J. 219:375-382.
(§2) Cells were cultured in RPMI-1640 medium supplemented with 10% fetal calf serum, 100 mM L-glutamine and 50 μg/ml gentamycin at 37° C. under 5% CO2. Cells were seeded into 24-well plates at a density of 50,000 cells/well and grown until near confluency, approximately 2 days, then transferred to 96-well plates at the same density. […] Viability of the cells was determined by trypan blue exclusion. […] Approximately 25% of K-562 and X-653 cells survived at a concentration of 12 μg/ml, and the same proportion of P-815 cells survived at a concentration of about 25 μg/ml.
(§3) The proliferation of the transformed cells was assessed by incubating ^3H-labeled thymidine in the media for 18 hours. At the end of the specified time period, the proliferation was measured by counting the amount of ^3H-thymidine incorporated. Thymidine incorporation provides a quantitative measure of the rate of DNA synthesis, which is typically directly proportional to the rate of cell division.

X-653 cells [3] = assay: as above; assay type: cell-based, mouse; conditions: 3H-thymidine 18 hours, FIG. 6
Method: as §1, §2, §3

Sarcoma-37 = assay: Inhibition of tumor growth in implanted tumors; assay type: in vivo, mice and rats; conditions: dose 30 mg/kg
sarcoma 45 = assay: Disturbance of DNA synthesis in tumors (inhibition index); assay type: in vivo, rats; conditions: drug resistant sarcoma 45, alone
immune system [4] = assay: Immune system modulation in intact mice; assay type: in vivo
Method: In intact mice, injection of 10 mg/kg increased the total number of leukocytes through an increase in the absolute number of lymphocytes. […] The nitroblue tetrazolium assay was used to assess the function of the neutrophils. […] With a higher dosage, 20 mg/kg, a decrease in nitroblue tetrazolium positive neutrophils was seen, indicating a decrease in function.
The level of the T-suppressor subpopulation was not altered. At a higher dosage (20 mg/kg), overall leukocyte number was not altered, even though B-lymphocyte number decreased and T-lymphocyte decreased to a lesser extent. Natural killer cell number was increased.
The increase in T-lymphocytes was accompanied by an increase in the level of the T-helper subpopulation of T-lymphocytes.

K-562 cells = assay: Viability of transformed cells, trypan blue exclusion; assay type: cell-based, human; conditions: 12 μg/ml, 18 hours
Method: as §1, §2

Pliss lymphosarcoma = assay: Inhibition of tumor growth in implanted tumors; assay type: in vivo, rats; conditions: dose 30 mg/kg
PC-1 = assay: Inhibition of tumor growth in implanted tumors; assay type: in vivo, mice and rats; conditions: dose 30 mg/kg
geranylgeranylation = assay: Protein prenylation in myeloma Pai cells, naphthol cleavage and HPLC; assay type: cell-based, mouse; conditions: 60 μM, FIG. 8B
Method: (§4) The cells were collected by centrifugation at 600×g for 10 minutes and then washed twice in PBS. Control cells were grown in the absence of drug. The cells were solubilized in lysis buffer (50 mM Tris, pH 7.4, 25 mM EDTA, 0.05% Tween, 0.01 M NaCl) for 30 minutes on ice. Lysates were made by homogenization for 5 minutes at 4° C. and precipitated by centrifugation at 12,000×g for 10 minutes. The supernatant was collected. Proteins were precipitated with trichloroacetic acid and then successively washed with ethanol and ethyl ether. A selective naphthol cleavage of the bond between isoprenoides and proteins was performed as described by Epstein, W. W et al., (1991) Proc. Natl. Acad. Sci. USA 88:9668-9670. In general, 5 mg of a potassium naphthoxide and naphthol 4:1 mixture was added to approximately 10 mg of precipitated protein. After addition of 50 μl of dimethylformamide, the tubes were gassed with argon, capped and heated to 100° C. for eight to 15 hours. Reaction products were extracted with hexane and analyzed by HPLC (Waters System) using a 0.4×15 cm reverse-phase Nova-Pac C18 column. The column was eluted with 20% water in acetonitrile at a flow of 1.0 ml/minute. Napthol cleavage products were detected at 360 nm (FIG. 8) with a full-scale deflection of 0.01 A unit. […]

[5] = system: farnesylation of proteins; assay: as above; assay type: cell-based, mouse; conditions: 60 μM, FIG. 8B
Method: as §4

immune system [6] = assay: Immune system modulation in intact mice; assay type: in vivo; remark: listed apart in the source
[7] = system: Sarcoma-45 resistant to 5-fluorouracil; assay: Inhibition of growth of resistant tumour strains; assay type: in vivo, rats; conditions: dose 50 mg/kg
P-815 cells [8] = assay: Viability of transformed cells, trypan blue exclusion; assay type: cell-based, mouse; conditions: about 25 μg/ml, 18 hours
Method: as §1, §2

X-653 cells [9] = assay: as above; assay type: cell-based, mouse; conditions: 12 μg/ml, 18 hours
Method: as §1, §2

CC1=CCC23OC2(C)CCC2C(CN(C)C)C(=O)OC2C13.Cl (stereo not drawn) [Dimethylaminoarglabin hydrochloride]
neutrophil adhesiveness (immune system [1]; days 3-5 of treatment, decreased from 42%): 28.5%
undifferentiated lymphocytes (immune system [1]; days 3-5 of treatment, increased from 21.5%): 42.2%
number of T-helper lymphocytes (immune system [1]; days 3-5 of treatment, reduced from 50%): 37.3%
number of T-lymphocytes (immune system [1]; days 3-5 of treatment, reduced from 57%): 40.1%
total number of leukocytes increased up to (immune system [1]; during treatment): up to 9.4 ×10^9/L
concentration at which proliferation was effectively blocked (P-815 cells [2]): 12 µg/mL
concentration at which proliferation was effectively blocked (X-653 cells [3]): 6 µg/mL
Inhibition of Tumour Growth, % - Sarcoma-37 (Sarcoma-37): 78.2* %
DNA inhibition index (sarcoma 45): 99%
total number of leukocytes (immune system [4]; 10 mg/kg): increased
B-lymphocytes (immune system [4]; 10 mg/kg daily IP for 10 days): remained stable
overall leukocyte count (immune system [4]; 10 mg/kg daily IP for 10 days): increased
leukocyte number (immune system [4]; 20 mg/kg): did not result in an overall increase
nitroblue tetrazolium positive neutrophils (immune system [4]; 20 mg/kg): decrease
natural killer cell number (immune system [4]; 20 mg/kg daily IP for 10 days): increased
cells survived (K-562 cells): Approximately 25%
Inhibition of Tumour Growth, % - Pliss lymphosarcoma (Pliss lymphosarcoma): 79.6%
Inhibition of Tumour Growth, % - PC-1 (PC-1): 84.3* %
geranylgeranyl peak (geranylgeranylation): appeared as in the control
peak corresponding to the farnesylcysteine derivative [5]: does not appear on the chromatogram
hemagglutination titer (immune system [6]; 100 mg/kg IP): slight decrease
hemagglutination test index (immune system [6]; repeated IP 30 mg/kg, day 10): decreased
hemagglutination titers (immune system [6]; repeated IP 10 and 20 mg/kg, days 5 and 10): increased
delayed-type hypersensitivity reaction (immune system [6]; repeated IP, day 5): No effect
delayed-type hypersensitivity reaction (immune system [6]; repeated IP, day 10): increased by day 10
delayed-type hypersensitivity reaction (immune system [6]; single 50 mg/kg IP): did not alter
hemagglutination titer (immune system [6]; single 50 mg/kg IP): did not alter
Inhibition of Tumour Strains Growth, % - Resistant Forms - Sarcoma-45 to 5-fluorouracil [7]: 62.3%
cells survived (P-815 cells [8]): Approximately 25%
cells survived (X-653 cells [9]): Approximately 25%
